Activity calls are given as the source filed them. No cut-off for these calls is given here.
Assays:
MEF = assay: Inhibition of IL-1alpha induced p38 phosphorylation level in mouse MEF cells preincubated for 1 hr followed by IL-1 alpha stimulation and measured after 30 mins by Western blot analysis; assay type: functional, cell-based; conditions: dose 0.01-10 µM
[1] = target: Ankyrin repeat and protein kinase domain-containing protein 1 (Homo sapiens) (UniProt Q8NFD2); assay: Inhibition of ANKK1 (unknown origin) at 10 uM by Ambit Kinomescan binding assay relative to control
[2] = target: Bone morphogenetic protein receptor type-1B (Homo sapiens) (UniProt O00238); assay: Inhibition of BMPR1B (unknown origin) at 10 uM by Ambit Kinomescan binding assay
[3] = target: Receptor tyrosine-protein kinase erbB-4 (Homo sapiens) (UniProt Q15303); assay: Inhibition of ERBB4 (unknown origin) at 10 uM by Ambit Kinomescan binding assay
[4] = target: Insulin-like growth factor 1 receptor (Homo sapiens) (UniProt P08069); assay: Inhibition of IGF1R (unknown origin) at 10 uM by Ambit Kinomescan binding assay
[5] = target: Mitogen-activated protein kinase kinase kinase 9 (Homo sapiens) (UniProt P80192); assay: Inhibition of MLK1 (unknown origin) at 10 uM by Ambit Kinomescan binding assay
[6] = target: Mitogen-activated protein kinase kinase kinase 1 (Homo sapiens) (UniProt Q13233); assay: Inhibition of MAP3K1 Lys2 labeling site in human A-375 cells at 5 uM by KiNativ Profiling analysis relative to control; assay type: cell-based
[7] = target: Epidermal growth factor receptor (Homo sapiens) (UniProt P00533); assay: Inhibition of EGFR Lys1 labeling site in human A-375 cells at 0.05 uM by KiNativ Profiling analysis relative to control; assay type: cell-based
[8] = target: T1, Kinase suppressor of Ras 1 (Homo sapiens) (UniProt Q8IVT5); assay: Inhibition of KSR1 ACT labeling site harbouring SKNVFYDNGKVVITDFGLFGISGVVR in human A-375 cells at 0.05 uM by KiNativ Profiling analysis relative to control; assay type: cell-based
T1 sequence (whole entry): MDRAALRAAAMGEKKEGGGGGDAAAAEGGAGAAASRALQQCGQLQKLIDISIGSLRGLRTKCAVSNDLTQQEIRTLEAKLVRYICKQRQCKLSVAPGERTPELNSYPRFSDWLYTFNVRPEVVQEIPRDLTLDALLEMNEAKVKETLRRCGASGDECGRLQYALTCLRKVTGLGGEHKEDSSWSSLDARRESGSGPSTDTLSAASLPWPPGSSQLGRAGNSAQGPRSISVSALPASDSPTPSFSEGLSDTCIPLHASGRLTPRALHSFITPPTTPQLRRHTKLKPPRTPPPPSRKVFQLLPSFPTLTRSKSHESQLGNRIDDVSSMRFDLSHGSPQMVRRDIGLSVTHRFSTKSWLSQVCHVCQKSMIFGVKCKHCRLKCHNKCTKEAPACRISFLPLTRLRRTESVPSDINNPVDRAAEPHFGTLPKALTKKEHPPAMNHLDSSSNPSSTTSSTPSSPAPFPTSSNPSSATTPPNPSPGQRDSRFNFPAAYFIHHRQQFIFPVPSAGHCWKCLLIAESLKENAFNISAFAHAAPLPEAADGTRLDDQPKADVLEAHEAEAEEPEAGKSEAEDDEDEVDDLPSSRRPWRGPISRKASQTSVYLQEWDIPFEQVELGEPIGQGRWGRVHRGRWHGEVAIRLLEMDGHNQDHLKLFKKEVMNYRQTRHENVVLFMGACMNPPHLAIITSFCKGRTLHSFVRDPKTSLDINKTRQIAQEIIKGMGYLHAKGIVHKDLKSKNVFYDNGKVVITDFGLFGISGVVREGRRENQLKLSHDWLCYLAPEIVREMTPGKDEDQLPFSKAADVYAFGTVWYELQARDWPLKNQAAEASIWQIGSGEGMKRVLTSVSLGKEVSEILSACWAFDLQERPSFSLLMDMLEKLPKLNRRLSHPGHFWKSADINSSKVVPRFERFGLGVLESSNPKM

[9] = target: Calcium/calmodulin-dependent protein kinase type II subunit delta (Homo sapiens) (UniProt Q13557); assay: Inhibition of CamK2d K1 labeling site harbouring IPTGQEYAAKIINTK in human Huh-7 cells at 10 uM by KiNativ Profiling analysis relative to control; assay type: cell-based
[10] = target: Ribosomal protein S6 kinase alpha-3 (Homo sapiens) (UniProt P51812); assay: Inhibition of RSK2 Domain 1 ACT labeling site harbouring LTDFGLSKESIDHEKK in human Huh-7 cells at 10 uM by KiNativ Profiling analysis relative to control; assay type: cell-based
[11] = Inhibition of NEK6/7 K2 labeling site harbouring DIKPANVFITATGVVK in human Huh-7 cells at 1 uM by KiNativ Profiling analysis relative to control; conditions: condition cancer
[12] = Inhibition of KHS1 Lys2 labeling site harbouring DIKGANILLTDHGDVKLADFGVAAK in human Huh-7 cell lysate at 1 uM by KiNativ Profiling analysis relative to control; conditions: condition cancer
[13] = target: Serine/threonine-protein kinase 24 (Homo sapiens) (UniProt Q9Y6E0); assay: Inhibition of MST3 Lys2 labeling site harbouring IHRDIKAANVLLSEHGEVK in human Huh-7 cell lysate at 1 uM by KiNativ Profiling analysis relative to control; assay type: subcellular
[14] = target: Serine/threonine-protein kinase ULK2 (Homo sapiens) (UniProt Q8IYT8); assay: Inhibition of ULK2 (unknown origin) at 1 uM by Ambit Kinomescan binding assay relative to control
[15] = target: Cyclin-dependent kinase 4 (Homo sapiens) (UniProt P11802); assay: Inhibition of CDK4 Lys2 labeling site in human A-375 cells at 0.05 uM by KiNativ Profiling analysis relative to control; assay type: cell-based
[16] = target: Mitogen-activated protein kinase 3 (Homo sapiens) (UniProt P27361); assay: Inhibition of ERK1 (unknown origin) at 1 uM by Ambit Kinomescan binding assay relative to control; values are per cent of control
Mitogen-activated protein kinase 3 (Homo sapiens), sequence (P27361 whole entry): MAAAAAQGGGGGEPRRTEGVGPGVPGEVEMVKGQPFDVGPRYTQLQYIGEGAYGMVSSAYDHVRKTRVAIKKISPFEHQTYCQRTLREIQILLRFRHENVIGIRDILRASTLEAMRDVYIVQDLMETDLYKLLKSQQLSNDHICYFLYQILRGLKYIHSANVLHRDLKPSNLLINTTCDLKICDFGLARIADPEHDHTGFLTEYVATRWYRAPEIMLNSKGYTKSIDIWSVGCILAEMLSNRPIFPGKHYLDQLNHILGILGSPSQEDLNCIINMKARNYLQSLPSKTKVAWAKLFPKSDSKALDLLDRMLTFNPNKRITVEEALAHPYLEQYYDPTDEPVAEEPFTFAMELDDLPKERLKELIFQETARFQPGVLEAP

Epidermal growth factor receptor (Homo sapiens), sequence (P00533 whole entry): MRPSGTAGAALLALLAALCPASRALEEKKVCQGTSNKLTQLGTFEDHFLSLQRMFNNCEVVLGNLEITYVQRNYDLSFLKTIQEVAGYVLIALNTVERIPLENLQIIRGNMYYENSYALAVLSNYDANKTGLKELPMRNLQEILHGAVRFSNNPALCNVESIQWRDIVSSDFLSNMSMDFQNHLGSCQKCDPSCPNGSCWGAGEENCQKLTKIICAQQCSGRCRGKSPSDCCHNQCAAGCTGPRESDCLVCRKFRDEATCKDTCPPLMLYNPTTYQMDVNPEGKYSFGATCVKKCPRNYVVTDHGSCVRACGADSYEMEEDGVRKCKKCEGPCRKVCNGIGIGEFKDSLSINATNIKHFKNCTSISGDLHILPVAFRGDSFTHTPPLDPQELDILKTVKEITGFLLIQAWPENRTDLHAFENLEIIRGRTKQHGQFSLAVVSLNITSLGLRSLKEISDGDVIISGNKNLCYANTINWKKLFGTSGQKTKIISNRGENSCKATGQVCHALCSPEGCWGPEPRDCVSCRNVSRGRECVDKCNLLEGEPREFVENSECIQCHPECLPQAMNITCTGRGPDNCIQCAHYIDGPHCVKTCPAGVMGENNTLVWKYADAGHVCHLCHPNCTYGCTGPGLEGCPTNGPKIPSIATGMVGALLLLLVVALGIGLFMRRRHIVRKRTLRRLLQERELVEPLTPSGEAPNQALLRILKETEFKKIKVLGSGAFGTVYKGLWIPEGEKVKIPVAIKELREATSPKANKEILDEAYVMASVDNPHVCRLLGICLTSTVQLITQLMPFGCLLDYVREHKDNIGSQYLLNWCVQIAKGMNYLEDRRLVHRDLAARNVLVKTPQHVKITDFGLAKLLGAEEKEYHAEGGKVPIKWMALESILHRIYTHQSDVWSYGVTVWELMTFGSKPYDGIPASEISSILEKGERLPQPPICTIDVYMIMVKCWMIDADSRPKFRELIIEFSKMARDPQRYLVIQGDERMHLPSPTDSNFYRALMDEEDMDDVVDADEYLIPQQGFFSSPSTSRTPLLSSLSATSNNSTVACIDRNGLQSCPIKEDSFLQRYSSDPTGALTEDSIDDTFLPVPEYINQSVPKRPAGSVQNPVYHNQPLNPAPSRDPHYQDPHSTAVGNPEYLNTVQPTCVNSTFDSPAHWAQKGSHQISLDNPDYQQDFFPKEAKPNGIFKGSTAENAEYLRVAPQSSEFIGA
Ribosomal protein S6 kinase alpha-3 (Homo sapiens), sequence (P51812 whole entry, the tested form may be a part): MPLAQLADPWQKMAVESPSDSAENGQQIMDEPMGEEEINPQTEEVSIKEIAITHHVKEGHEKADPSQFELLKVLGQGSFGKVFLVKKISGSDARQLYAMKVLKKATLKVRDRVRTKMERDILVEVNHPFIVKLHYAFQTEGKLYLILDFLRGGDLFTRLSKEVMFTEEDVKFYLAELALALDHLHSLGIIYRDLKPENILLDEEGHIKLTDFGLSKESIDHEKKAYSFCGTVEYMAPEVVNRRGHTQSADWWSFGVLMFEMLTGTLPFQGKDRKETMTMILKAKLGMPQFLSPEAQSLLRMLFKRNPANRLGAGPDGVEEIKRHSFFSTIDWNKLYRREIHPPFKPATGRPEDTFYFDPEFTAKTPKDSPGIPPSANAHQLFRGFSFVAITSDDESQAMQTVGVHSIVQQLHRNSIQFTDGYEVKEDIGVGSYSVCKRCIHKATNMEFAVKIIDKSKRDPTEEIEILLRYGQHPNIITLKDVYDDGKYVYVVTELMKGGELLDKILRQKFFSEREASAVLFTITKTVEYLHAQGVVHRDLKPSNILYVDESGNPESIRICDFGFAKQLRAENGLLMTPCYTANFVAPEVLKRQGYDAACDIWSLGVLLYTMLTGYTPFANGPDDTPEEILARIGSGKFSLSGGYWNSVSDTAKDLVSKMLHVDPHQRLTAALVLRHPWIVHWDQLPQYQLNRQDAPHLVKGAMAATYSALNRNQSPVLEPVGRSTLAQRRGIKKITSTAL
Mitogen-activated protein kinase kinase kinase 1 (Homo sapiens), sequence (Q13233 whole entry): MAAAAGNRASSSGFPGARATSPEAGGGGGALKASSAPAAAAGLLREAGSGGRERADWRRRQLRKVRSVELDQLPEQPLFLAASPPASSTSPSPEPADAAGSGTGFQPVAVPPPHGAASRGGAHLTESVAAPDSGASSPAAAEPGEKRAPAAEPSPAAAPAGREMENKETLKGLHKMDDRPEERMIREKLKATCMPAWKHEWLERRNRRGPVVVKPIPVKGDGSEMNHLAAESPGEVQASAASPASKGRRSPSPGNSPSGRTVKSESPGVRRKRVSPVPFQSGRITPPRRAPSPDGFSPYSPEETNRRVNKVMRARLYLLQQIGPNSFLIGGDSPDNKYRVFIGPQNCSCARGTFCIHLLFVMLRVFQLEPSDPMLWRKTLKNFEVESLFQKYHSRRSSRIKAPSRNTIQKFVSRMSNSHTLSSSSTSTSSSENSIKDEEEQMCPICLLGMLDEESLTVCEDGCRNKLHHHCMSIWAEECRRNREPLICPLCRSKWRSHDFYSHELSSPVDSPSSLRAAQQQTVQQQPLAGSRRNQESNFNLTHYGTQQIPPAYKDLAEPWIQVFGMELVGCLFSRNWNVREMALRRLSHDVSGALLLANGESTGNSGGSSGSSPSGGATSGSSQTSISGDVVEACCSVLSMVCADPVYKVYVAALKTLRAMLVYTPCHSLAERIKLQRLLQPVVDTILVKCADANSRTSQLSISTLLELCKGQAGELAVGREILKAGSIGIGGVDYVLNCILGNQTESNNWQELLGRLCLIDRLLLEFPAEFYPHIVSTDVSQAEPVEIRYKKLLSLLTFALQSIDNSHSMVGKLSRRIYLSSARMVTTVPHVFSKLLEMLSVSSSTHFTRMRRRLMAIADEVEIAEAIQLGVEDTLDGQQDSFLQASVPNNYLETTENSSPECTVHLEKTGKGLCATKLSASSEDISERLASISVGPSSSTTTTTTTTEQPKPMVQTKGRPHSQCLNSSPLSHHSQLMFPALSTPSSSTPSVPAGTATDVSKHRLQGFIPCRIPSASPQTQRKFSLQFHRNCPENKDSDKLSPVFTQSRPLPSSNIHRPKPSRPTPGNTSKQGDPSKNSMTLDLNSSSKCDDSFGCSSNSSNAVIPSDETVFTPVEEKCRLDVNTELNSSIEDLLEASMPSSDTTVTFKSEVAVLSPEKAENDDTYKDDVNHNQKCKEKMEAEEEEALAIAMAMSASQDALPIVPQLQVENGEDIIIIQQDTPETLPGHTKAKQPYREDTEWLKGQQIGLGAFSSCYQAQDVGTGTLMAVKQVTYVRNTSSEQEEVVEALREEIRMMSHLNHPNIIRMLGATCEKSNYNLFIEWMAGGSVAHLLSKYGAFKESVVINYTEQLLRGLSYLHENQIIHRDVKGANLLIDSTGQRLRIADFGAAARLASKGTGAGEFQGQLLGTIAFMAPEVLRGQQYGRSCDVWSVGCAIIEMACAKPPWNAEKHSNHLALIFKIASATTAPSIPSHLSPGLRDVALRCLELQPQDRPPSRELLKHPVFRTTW
Ankyrin repeat and protein kinase domain-containing protein 1 (Homo sapiens), sequence (Q8NFD2 whole entry, the tested form may be a part): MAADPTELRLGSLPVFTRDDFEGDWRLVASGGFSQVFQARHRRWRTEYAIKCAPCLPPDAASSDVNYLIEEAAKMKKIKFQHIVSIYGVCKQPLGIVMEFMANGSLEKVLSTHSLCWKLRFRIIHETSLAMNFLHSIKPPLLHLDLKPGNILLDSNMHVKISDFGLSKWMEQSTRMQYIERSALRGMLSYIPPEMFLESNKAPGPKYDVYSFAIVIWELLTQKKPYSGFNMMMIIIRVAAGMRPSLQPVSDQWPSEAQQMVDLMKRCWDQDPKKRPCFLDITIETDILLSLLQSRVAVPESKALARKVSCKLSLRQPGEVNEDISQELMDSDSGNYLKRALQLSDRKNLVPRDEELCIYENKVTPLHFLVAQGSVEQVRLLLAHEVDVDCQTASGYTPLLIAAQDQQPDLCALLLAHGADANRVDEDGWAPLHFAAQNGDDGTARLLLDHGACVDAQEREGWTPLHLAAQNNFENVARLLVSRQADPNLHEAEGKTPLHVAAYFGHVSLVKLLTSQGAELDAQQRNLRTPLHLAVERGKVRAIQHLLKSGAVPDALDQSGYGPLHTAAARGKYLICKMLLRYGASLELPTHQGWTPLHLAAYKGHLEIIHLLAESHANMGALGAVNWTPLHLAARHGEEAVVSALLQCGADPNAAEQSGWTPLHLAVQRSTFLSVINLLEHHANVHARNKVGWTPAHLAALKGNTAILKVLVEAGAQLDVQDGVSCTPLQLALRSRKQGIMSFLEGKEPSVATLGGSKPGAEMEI
Serine/threonine-protein kinase 24 (Homo sapiens), sequence (Q9Y6E0 whole entry, looked up): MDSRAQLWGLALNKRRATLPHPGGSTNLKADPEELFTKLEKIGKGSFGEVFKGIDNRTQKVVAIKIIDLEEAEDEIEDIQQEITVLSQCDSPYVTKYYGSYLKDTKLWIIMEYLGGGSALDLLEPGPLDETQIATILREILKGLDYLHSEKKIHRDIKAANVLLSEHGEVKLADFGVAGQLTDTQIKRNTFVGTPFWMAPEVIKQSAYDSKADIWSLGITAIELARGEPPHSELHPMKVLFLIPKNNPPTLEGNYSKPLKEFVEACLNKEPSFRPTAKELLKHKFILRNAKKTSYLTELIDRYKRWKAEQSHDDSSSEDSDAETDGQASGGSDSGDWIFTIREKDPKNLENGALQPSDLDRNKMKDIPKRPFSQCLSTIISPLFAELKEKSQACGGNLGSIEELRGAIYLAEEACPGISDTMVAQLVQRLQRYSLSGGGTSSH

CCN1CCN(Cc2ccc(NC(=O)c3ccc(C)c(Oc4ccnc5[nH]ccc45)c3)cc2C(F)(F)F)CC1
inhibition (MEF): Dose-Dependent Effect | inhibition [1]: 23% | inhibition [2]: inactive | inhibition [3]: 28% | inhibition [4]: inactive | inhibition [5]: inactive | inhibition [6]: 83.9% | inhibition [7]: 11.7% | inhibition [8]: -2.6% | inhibition [9]: -7.6% | inhibition [10]: -8% | inhibition at 1 µM [11]: -13.1%

CNc1cc(Oc2cc(C(=O)Nc3cc(N4CCN(C)CC4)cc(C(F)(F)F)c3)ccc2C)ncn1
inhibition at 1 µM [12]: 10.4% | inhibition [13]: 15.9%

CCN1CCN(Cc2ccc(NC(=O)c3ccc(C)c(/C=C/c4cnc5[nH]ccc5c4OC)c3)cc2C(F)(F)F)CC1
inhibition [14]: 81% | inhibition [15]: -10% | residual activity [16]: 100%

Source: ChEMBL document CHEMBL5696442, “Discovery of type II inhibitors of TGFβ-activated kinase 1 (TAK1) and mitogen-activated protein kinase kinase kinase kinase 2 (MAP4K2)” (J Med Chem, 2015)
